Measured values reported in paper PMC9875641, “Ophthalmic Solution of Smart Supramolecular Peptides to Capture Semaphorin 4D against Diabetic Retinopathy” (Advanced Science, 2022).

Columns and labels:
[1] = test system: OIR model; assay: Oxygen-induced retinopathy (OIR) model, pathological retinal neovascularization; assay type: in vivo, mouse; conditions: for reduction of pathological retinal neovascularization by eye drops plus anti-VEGF injection compared with anti-VEGF injection alone: isolectin B4, anti-VEGF antibody 2 µg intravitreal at P12, eye drops twice a day until P17, on average
Procedure: follows: 5’-[…]-3’, 5’- […]
OIR. OIR model was performed as previously described. The pups and their mothers […]
were exposed to 75% oxygen at 7-12 days after birth, and then exposed to indoor air […]
for another 5 days. At P17, the mice were anesthetized and sacrificed, and the retinas […]
Isolectin B4. Isolectin B4 staining for retinal blood vessel visualization is as […]
described above. After fixing the eyeball with 4% paraformaldehyde (overnight at 4 […]
degrees), the intact retina was peeled off using microscissors and micro tweezers.
After rupture of the membrane with 2% Triton X-100, the retina was placed in the […]
configured isolectin B4 staining (1:100) overnight at 4 degrees. Acquire multiple […]
overlapping (10-20% overlap) images using a fluorescence microscope and merge […]
them together in Adobe Photoshop to visualize the entire retina. Use ImageJ software to quantify the area of pathological neovascularization relative to the total retinal area. […]
(§1) Statistical analysis. Statistical analysis was conducted using Graphpad Prism 8.0 software. All data were expressed by mean ± SD. Unpaired two-tailed Student’s t-test (two groups) or one-way ANOVA (more than 2 groups) was used to analyze the statistical significances of the data. Person’s correlation analysis was conducted to […]

[2] = Zeta potential of SSPs; assay type: physicochemical; conditions: self-assembled SSP under aqueous condition
Description: Artificial tears containing SSPs were developed and dropped into eyes. SSPs accumulated in the vitreous cavity. To examine the behavior of SSPs monomer in artificial tear, it was fast injected into water. Under the aqueous condition, the SSPs self‐assembled into spherical NPs or nanorods, a function of its to C16 and FFVLK domains with a hydrophobic unit. The morphology of SSP‐1 was NPs with the average size of 44.8 ± 2.9 nm. […] Besides, the zeta potential of SSP‐1 and SSP‐2 was positive charged with the value of 45.7 and 40.2 mV, respectively (Figure 3C). The positive charged SSPs penetrate blood‐eye barrier well.
(§2) In addition, KLVFF sequence, a sheet structure with strong hydrogen‐bonding was introduced into SSPs, we could distinctly observe the secondary structure of SSPs by circular dichroism (CD) spectroscopy. […] The percentage of β‐sheet after incubation with sSema4D in SSP‐1 and SSP‐2 were 85.6% and 42.3%, respectively, indicative of a highly organized packing of NFs in SSP‐1. […] The high percentage of β‐sheet structure in NFs stabilized the formation of nanostructure networks, due to its strong hydrogen‐bonding KLVFF sequence. Moreover, we carried out the cytotoxicity of SSP‐1 and SSP‐2 by using a standard CCK‐8 (Figure 3D). […] Finally, we investigated the recognition of sSema4D and SSP‐1 and SSP‐2 by confocal laser scanning microscope (CLSM).

[3] = test system: STZ model; assay: STZ-induced retinopathy model, retinal vascular leakage; assay type: in vivo, mouse; conditions: for reduction of retinal vascular leakage by eye drops plus anti-VEGF injection compared with anti-VEGF injection alone: Evans blue, anti-VEGF antibody 2 µg intravitreal at third month, eye drops twice a day for 30 d, on average; for reduction of retinal vascular leakage by eye drops plus anti-VEGF injection compared with anti-VEGF injection alone / vascular leakage (Evans blue assay): n = 9; for diabetes-induced retinal acellular capillary formation: eye drops 10 µL per eye twice daily for 30 d, PDGFRb/collagen IV staining, n = 6
Procedure: follows: 5’-[…]-3’, 5’-
STZ. Eight-week-old male C57BL/6 mice were starved for 4 hours before each […]
injection of streptozotocin (STZ, Sigma, St. Louis, MO), and then injected with STZ […]
(50 mg/kg) for 5 consecutive days. Mice in the vehicle control group were […]
intraperitoneally injected with citrate buffer for 5 consecutive days. A blood glucose […]
meter (ONETOUCH, Johnson & Johnson, USA) was used to evaluate the fasting […]
blood glucose of the mice 7 days after the last injection of STZ. Mice with blood […]
glucose levels greater than or equal to 16.7 mM were considered successful in STZ […]
modeling. […]
Evans blue assay. Mice were intraperitoneally injected with Evans Blue dye (200 mg/kg) and circulated for 5 hours. The mice were perfused with PBS, and the eyes were fixed with 4% PFA at 4 degrees Celsius for 12 hours, and the retina was separated. Some retinas are tested for Evans Blue fluorescence using a fluorescence microscope. Adding formamide (70 μL/piece) to the rest of the retina and incubate overnight at 70°C to extract the […]. Detect the absorbance of formamide at 620/740 nm (background) with a microplate reader. Calculate the content of Evans blue in the retina from the standard curve, and then standardize it based on the weight of the retina and the content of Evans blue in the blood. […]
as §1

[4] = test system: mouse brain microvascular endothelial cells (MBMEC); assay: CCK-8 cytotoxicity; assay type: cell-based; conditions: CCK-8, 24 h incubation, concentrations up to 80 × 10^−6 M
Procedure: as §2, with “(CLSM). […]” for “(CLSM).”
pericytes were cultured in Pericyte Medium (ScienCell, USA). bEnd.3 cells were purchased from ATCC and grown in DMEM with 10% fetal bovine serum.
Preparation method of nanoparticles. The nanomaterials FG-12 and FH-12 were added to a 1:1 mixture of propylene glycol and ethanol solution to form a 2 mM mother liquor. The mother solution was diluted in normal saline at 1:100 dilution to form a 20 μM nanoparticle solution. […]
solution was added. After 2 h incubation with CCK8 solution at 37℃ in a 5% CO2 atmosphere, the […] was evaluated by a fluorescence microplate reader (PerkinElmer, Waltham, MA, USA). real-time PCR. […]

[5] = test system: in vitro BRB model (ARPE-19 layer and HUVEC layer)
[6] = eye drops 5 µL per eye twice daily P12 to P17, n = 8, equal to intraocular anti-Sema4D antibody
[7] = eye drops 5 µL per eye twice daily P12 to P17, vs littermate controls, n = 7
[8] = intravitreal injection at P12, retinas at P17, n = 8, effect equal to Sema4D antibody
[9] = intravitreal injection at P12, retinas at P17, vs littermate controls, n = 6
[10] = eye drops 10 µL per eye twice daily for 30 d after third month since diabetes induction, equal to intraocular anti-Sema4D antibody
[11] = intravitreal injection at third month since diabetes induction, retinas at fourth month, similar to anti-Sema4D antibody

| Substance | pathological retinal vascular neovascularization (isolectin B4 staining) [1, 6] | numbers of preretinal neovascular cells [1, 7] | pathological retinal vascular neovascularization (isolectin B4 staining) [1, 8] | numbers of preretinal neovascular cells [1, 9] | reduction of pathological retinal neovascularization by eye drops plus anti-VEGF injection compared with anti-VEGF injection alone [1] [%] | zeta potential [2] [mV] | reduction of retinal vascular leakage by eye drops plus anti-VEGF injection compared with anti-VEGF injection alone [3] [%] | diabetes-induced retinal acellular capillary formation [3] | vascular leakage (Evans blue assay) [3, 10] | vascular leakage (Evans blue assay) [3, 11] | viability of MBMEC [4] [%] | transfer across the in vitro BRB [5] |
| --- | --- | --- | --- | --- | --- | --- | --- | --- | --- | --- | --- | --- |
| C16‐FFVLK‐KNKAAKG [SSP-2] | decreased | significantly decreased | decreased | significantly reduced | 22.68 | 40.2 | 15.49 | ameliorated | significantly decreased | significantly decreased | ~90 | effectively transferred across the BRB |
| C16‐FFVLK‐KQKRPRH [SSP-1] | decreased | significantly decreased | decreased | significantly reduced | 25.72 | 45.7 | 20.21 | ameliorated | significantly decreased | significantly decreased | ~90 | effectively transferred across the BRB |
